Data taken from publication PMC3925156, “Β-Amylase from Starchless Seeds of Trigonella Foenum-Graecum and Its Localization in Germinating Seeds” (PLoS ONE, 2014).

Molecular target: T1, Fenugreek β-amylase
T1 construct: gene BMY1; native, purified from ungerminated seeds (acetone, DEAE-cellulose, glycogen precipitation)
Assay: starch hydrolysis assay, Dixon plot
Format: biochemical, Trigonella foenum-graecum
Settings: competitive; starch substrate, pH 5.0, 30°C, 10 min preincubation

Ki	SMILES
2.32 mM	OC[C@H]1O[C@@](CO)(O[C@H]2O[C@H](CO)[C@@H](O)[C@H](O)[C@H]2O)[C@@H](O)[C@@H]1O [sucrose]
3.97 mM	OC[C@H]1O[C@@H]2O[C@H]3[C@H](O)[C@@H](O)[C@@H](O[C@H]4[C@H](O)[C@@H](O)[C@@H](O[C@H]5[C@H](O)[C@@H](O)[C@@H](O[C@H]6[C@H](O)[C@@H](O)[C@@H](O[C@H]7[C@H](O)[C@@H](O)[C@@H](O[C@H]1[C@H](O)[C@H]2O)O[C@@H]7CO)O[C@@H]6CO)O[C@@H]5CO)O[C@@H]4CO)O[C@@H]3CO [α-cyclodextrin]
